Experimental findings from patent US20030207819A1, “Compositions and methods for treating inflammatory connective tissue diseases” (priority 2002, published 2003) are described below.

Type in all cases: in vivo, human
For data set [1], the system named is patient with undifferentiated connective tissue disease. As to the kind of experiment: Example 6: clarithromycin trial, VAS and joint assessment. As to conditions: person. From the text:
A patient, was first seen in September 1999. […] They have used a number of anti-inflammatory agents frequently for therapy.
On the basis of the findings, including recurrent episodes of arthritis, Raynaud's, and thickening of the hands, connective tissue disease diagnoses such as Mixed Connective Tissue Disease or Progressive Systemic Sclerosis were considered.
Based on these findings, a diagnosis of Undifferentiated Connective Tissue Disease was made. Therapy was initiated with hydroxychloroquine ([…]®, Sanofi-Synthelabo, Inc.) and a non-steroidal anti-inflammatory agent. They utilized steroid dose packs periodically for symptomatic relief of their peripheral symptoms as well as their neck symptoms.
On examination, they had symptoms and findings much as before and a diagnosis of Undifferentiated Connective Tissue Disease was made. The patient agreed to undergo a trial with clarithromycin.
Following screening and baseline evaluations, the patient was begun on clarithromycin (BIAXIN®, Abbott Laboratories).
25, 2003 (“Visit 3”), for their first recheck visit.
When seen for their one month evaluation, the patient had been off steroid medication for approximately ten days.
Further assessment of their status was made on Apr. 13, 2003 at which time they were now off steroids for almost a one-month period.
Patient was again seen Apr. 21, 2003 (“Visit Four”), for their formal two-month follow-up on clarithromycin.

Data set [2] shares this test system. As to the kind of experiment: Example 1: clinical observation of patient on clarithromycin. The conditions noted are these: person; switched from clarithromycin to azithromycin 500 mg day 1, 250 mg/day days 2 through 5. From the text: We elected to continue them on this antibiotic. […] Because the patient was on Lodine (NSAID) at the same time, we elected to see if they could stop the Lodine and still have relief of symptoms.

Data set [3] deals with patient with low-grade connective tissue symptoms. Kind of data set: Example 5: clarithromycin study, VAS and joint assessment. As to conditions: person. From the text: In 1991, it was elected to begin the patient on hydroxychloroquine ([…]®, Sanofi-Synthelabo, Inc.) given their low-grade connective tissue symptoms not responding to non-steroidal anti-inflammatory therapy. […] A trial of hydroxychloroquine was again initiated to see how they would tolerate it. […] Hydroxychloroquine was discontinued when they wanted to attempt getting pregnant again. Therapy most recently consisted of non-steroidal inflammatory agents and physical therapy.
On Feb. 27, 2003, the patient agreed to participate in the clarithromycin study. […] The patient was begun on clarithromycin (BIAXIN®, Abbott Laboratories) 500 mg twice per day.

Turning to `CC1(C)S[C@@H]2[C@H](NC(=O)[C@H](N)c3ccc(O)cc3)C(=O)N2[C@H]1C(=O)O` [amoxicillin], in data set [1] (amoxicillin tried on their own), the effect on pain entry was “of no help”. `CC[C@H]1OC(=O)[C@H](C)[C@@H](O[C@H]2C[C@@](C)(OC)[C@@H](O)[C@H](C)O2)[C@H](C)[C@@H](O[C@@H]2O[C@H](C)C[C@H](N(C)C)[C@H]2O)[C@](C)(O)C[C@@H](C)CN(C)[C@H](C)[C@@H](O)[C@]1(C)O` [azithromycin]: in data set [2], the Symptoms result was “no increase in symptoms”. Take `CCN(CCO)CCCC(C)Nc1ccnc2cc(Cl)ccc12` (centres unmarked) [hydroxychloroquine]: the “reason for discontinuation (adverse effect)” value in data set [3] (hydroxychloroquine begun 1991, approximately nine months) is “weight loss”. Further, the symptomatic improvement entry in data set [1] (hydroxychloroquine with a non-steroidal anti-inflammatory agent, approximately six months) was “did not feel significant improvement”. With `CCN(CC)CCCC(C)Nc1c2ccc(Cl)cc2nc2ccc(OC)cc12` (centres unmarked) [quinacrine], the “reason for discontinuation (skin colour)” value in data set [3] (quinacrine approximately one year, non-toxic condition) is given as “too yellow”.
